Source: patent publication US6573258B2, “Photodynamic porphyrin antimicrobial agents” (Frontier Scientific, Inc., priority 2000, dated 2003)

Columns and labels:
[1] = Photosensitized photooxidation of NATA; conditions: 10 μM NATA; for ΦSDS × 10^3, quantum yield for photo-oxidation of NATA: aqueous 2% SDS; for ΦPBS × 10^3, quantum yield for photo-oxidation of NATA: phosphate buffered solution
Protocol: The photosensitizing activity of the various porphyrins was tested by measuring their efficiency in promoting the photooxidation of N-acetyl-L-tryptophanamide (NATA, Aldrich Chem. Co.) as a model biological substrate. Toward this aim, 10 μM NATA in PBS or in water containing 2% SDS was irradiated in the presence of 5 μM porphyrin. The irradiations were performed with 515±10 nm-light isolated by means of an interference filter (Balzers, Liechtenstein), while the solution (2 ml) was magnetically stirred in a quartz cuvette of 1-cm optical path and kept at 25° C. The photosensitized modification of NATA was followed by measuring the decrease in the intensity of its fluorescence emission spectrum (300-450 nm) upon excitation with 290 nm-light at various irradiation times. Plots of in F°/F (where F° and F represent the fluorescence intensity at time 0 and t, respectively) vs. the irradiation time allowed the first-order rate constants of the photo-process to be derived.
The intensity of the incident light was measured by using Aberchrome 999P in toluene as an actinometer. Heller, EPA Newslett., 29:49-60 (1987). This parameter was used to calculate the quantum yields of NATA photooxidation sensitized by the different porphyrins.

[2] = Fluorescence decay times (phase-shift method); type: physicochemical; conditions: ca. 5 μM, air-equilibrated buffer pH 7.4, λexc = 420 nm, λem > 600 nm; for A1, relative weight of fast component: dihydrochloride salt
Protocol: Fluorescence decay times of the porphyrin samples were measured by means of a Spex Fluorolog-τ2 spectrofluorimeter based on the phase-shift method. The frequency response curves (phase-shift and demodulation ratio vs. frequency) were globally analyzed.

E. coli cells [3] = assay: Decrease of cell survival (colony counting) after white-light irradiation; type: cell-based, Escherichia coli; conditions: 1 μM porphyrin; for DECREASE OF SURVIVAL (log): 5 min dark incubation, 15 min white light (150 mW/cm^2)
Protocol: (§1) Escherichia coli strain O4 (wild type), and methycillin-resistant Staphylococcus aureus, strain MRSA 110, were grown aerobically at 37° C. in brain heart infusion broth (BHI, Difco, Detroit, Mich.). The cells in the stationary phase of growth were harvested by centrifugation (2,000 g for 15 min) of the broth cultures, washed twice with 10 mM PBS at pH=7.4, containing 2.7 mM KCl and 0.14 M NaCl, and suspended in PBS at a density of 10^8-10^9 cells/ml (absorbance of about 0.7 at 650 nm). Aliquots of 5 ml of the cell suspension were incubated with 1 μM porphyrins for 5 min in the dark at room temperature. After incubation the suspensions were centrifuged and the cell pellets were collected immediately or washed with PBS and centrifuged again for one or three times.
(§2) The toxic effects of T4MPyP and its analogues on E. coli and S. aureus cells were evaluated by measuring the extent of growth inhibition (bacteriostatic effect) and reduction of survival (cytocidal/bacteriocidal effect) following treatment with porphyrin in the dark or upon light exposure.
(§3) In all cases, 5 ml of the cell suspension (10^8-10^9 cells/ml) were incubated for 5 min in the dark at room temperature with the selected photosensitizer at concentrations ranging between 0.5 and 10 μM. After dark-incubation, some of the cell samples were irradiated with white light (150 mW/cm^2). During irradiation, (up to 30 min) the cells were kept at 37° C. and magnetically stirred. The treated and untreated control cells were diluted with BHI and maintained at 37° C. while the absorbance of the suspension at 650 nm was monitored at predetermined time periods for determining growth curves. The percent of growth inhibition in the treated cells was calculated by the following equation: […]
(§4) where AX, and AC are the absorbances measured after 3 h incubation, respectively, for the treated and control cell suspensions, respectively, while A0 represents the initial absorbance and the AC is that of the control cell suspension after 5 hours incubation. Cell survival was determined by plating serially diluted aliquots of treated and untreated cells on brain heart agar and counting the number of colonies after 18-24 h incubation at 37° C.

S. aureus cells [4] = assay: Growth inhibition after 5 min incubation with porphyrin and white-light irradiation; type: cell-based, Staphylococcus aureus
Protocol: (§5) The abilities of various examples of the porphyrins of the instant invention to kill Gram-negative and Gram-positive bacteria were tested against that of T4MPyP. Each of the compounds was incubated with E. coli and S. aureus cells for 5 minutes, following which the samples were irradiated with white light for varying lengths of time.
as §1, §2
[…] After dark-incubation, some of the cell samples were irradiated with white light (150 mW/cm^2). During irradiation, (up to 30 min) the cells were kept at 37° C. and magnetically stirred. The treated and untreated control cells were diluted with BHI and maintained at 37° C. while the absorbance of the suspension at 650 nm was monitored at predetermined time periods for determining growth curves. The percent of growth inhibition in the treated cells was calculated by the following equation:
as §4

S. aureus cells [5] = assay: Dark toxicity of porphyrins on bacteria cells; type: cell-based, Staphylococcus aureus; conditions: 10 μM, 5 min incubation in the dark
Protocol: as §2, §3, §4

[6] = Triplet state properties by laser flash photolysis; type: physicochemical; conditions: phosphate-buffered solution; for φT, triplet quantum yield: ε920 estimated by total depletion method
Protocol: Laser flash photolysis experiments were carried out by use of the setup previously described in Gomer, et al., with excitation wavelengths of 355 and 420 nm. Gorner, et al., Photoinduced electron transfer between styrylanthracenes and electron donors and acceptors in acetonitrile, J. Chem. Soc. Faraday Trans., vol. 88, pp. 29-34 (1992).
The transient spectra of the porphyrins in buffer solutions were recorded upon laser flash photolysis excitation at 355 and 420 nm. […] The decay (growth) of the signal (bleaching) occurred according to first-order kinetics and led to a complete recovery of the ground state with a lifetime of 91 μs. […] This also allowed the triplet quantum yield (φT) to be determined (see Table 3), after calibration of the experimental setup by use of an optically-matched solution of benzophenone in acetonitrile.

[7] = Fluorescence quantum yields; type: physicochemical; conditions: for ΦF (PBS), fluorescence quantum yield: in PBS; for ΦF (SDS), fluorescence quantum yield: in aqueous 2% SDS
Protocol: Ground-state absorption spectra of the porphyrins (ca. 5 μM in phosphate buffered saline (PBS, pH=7.4) were recorded with a Lambda 5 Perkin-Elmer spectrophotometer. Fluorescence spectra, corrected for the instrumental response, were recorded with a Perkin-Elmer (model LS) or a Spex (Fluorolog F112) spectrofluorimeter. Fluorescence quantum yields ((IF) of the porphyrin derivatives in PBS and in water containing 2% sodium dodecylsulfate (a detergent, hereinafter “SDS”) were determined by measuring the area of the emission spectrum (600-800 nm range, excitation at 560 nm) and using tetra-n-propylporphycene in toluene as a reference (ΦF=0.38). Braslavsky et al, J. Photochem. Photobiol. B: Biol., 40:191-198 (1997). In all cases, the absorbance of the sample and the reference solution were kept below 0.1 at the excitation wavelength to minimize inner filter effects.

E. coli cells [8] = assay: Dark toxicity of porphyrins on bacteria cells; type: cell-based, Escherichia coli; conditions: 10 μM, 5 min incubation in the dark
Protocol: as §2, §3, §4

E. coli cells [9] = assay: Growth inhibition after 5 min incubation with porphyrin and white-light irradiation; type: cell-based, Escherichia coli; conditions: for concentration photoinducing significant bacteriostatic and bactericidal action: both cell strains (S. aureus and E. coli)
Protocol: as §5, §1, §2, §3, §4

[10] = 0.5 μM, incubated 5 min, white light 5 min
[11] = 0.5 μM, incubated 5 min, white light 10 min
[12] = Table 5: 0.5 μM, 5 min incubation, 5 min white light (150 mW/cm^2)
[13] = Table 5: 1 μM, 5 min incubation, 5 min white light (150 mW/cm^2)

SMILES | ΦSDS × 10^3, quantum yield for photo-oxidation of NATA [1] | ΦPBS × 10^3, quantum yield for photo-oxidation of NATA [1] | A2, relative weight of slow component [2] | τ1, fluorescence decay time of fast component [2] | τ2, fluorescence decay time of slow component [2] | A1, relative weight of fast component [2] | DECREASE OF SURVIVAL (log) (E. coli cells [3]) | Growth inhibition (%) S. aureus (S. aureus cells [4]; [10]) | Growth inhibition (%) S. aureus (S. aureus cells [4]; [11]) | Growth inhibition (%) S. aureus (S. aureus cells [4]; [12]) | inhibition of bacterial cell growth in the dark (S. aureus cells [5]) | λmax of transient spectrum [6] | λmin of transient spectrum [6] | φ×ε920 [6] | τ^N2, triplet lifetime [6] | τ^air, triplet lifetime [6] | φT, triplet quantum yield [6] | ΦF (PBS), fluorescence quantum yield [7] | ΦF (SDS), fluorescence quantum yield [7] | inhibition of bacterial cell growth in the dark (E. coli cells [8]) | also measured
CCCCCCCCCCCCCC[n+]1ccc(-c2c3nc(c(-c4cc[n+](C)cc4)c4ccc([nH]4)c(-c4cc[n+](C)cc4)c4nc(c(-c5cc[n+](C)cc5)c5ccc2[nH]5)C=C4)C=C3)cc1.Cl.Cl.[Cl-].[Cl-].[Cl-].[Cl-] [Porphyrin C14, 5-(4-N-tetradecylpyridyl)-10,15,20-tris(4-N-methylpyridyl)-21H,23H-porphine tetrachloride dihydrochloride salt] | 0.71 ± 0.03 | 0.66 ± 0.10 | 98% | 1.0 ns | 6.5 ns | 2% | −4.35 ± 0.45 log | 72.7% | 88.9% | 73% | complete inhibition | 480 nm | 425 nm | 9762 M⁻¹ cm⁻¹ | 70 μs | 20 μs | 0.48 | 0.019 | 0.022 | complete inhibition | drop in survival of E. coli cells (E. coli cells [3]; 15 min irradiation): 4 log; Growth inhibition (%) E. coli (E. coli cells [9]; [10]): 81.8%; Growth inhibition (%) E. coli (E. coli cells [9]; [11]): 100%; Growth inhibition (%) E. coli (E. coli cells [9]; [12]): 82%; concentration photoinducing significant bacteriostatic and bactericidal action (E. coli cells [9]): ten-fold lower concentration
CCCCCCCCCCCCCCCCCC[n+]1ccc(-c2c3nc(c(-c4cc[n+](C)cc4)c4ccc([nH]4)c(-c4cc[n+](C)cc4)c4nc(c(-c5cc[n+](C)cc5)c5ccc2[nH]5)C=C4)C=C3)cc1.Cl.Cl.[Cl-].[Cl-].[Cl-].[Cl-] [Porphyrin C18, 5-(4-N-octadecylpyridyl)-10,15,20-tris(4-N-methylpyridyl)-21H,23H-porphine tetrachloride dihydrochloride salt] | 0.80 ± 0.04 | 0.14 ± 0.01 | 97% | 1.4 ns | 9.0 ns | 3% | −2.78 ± 0.62 log | 41.4% | 58.1% | 42% | complete inhibition | 470 nm | 420 nm | 2700 M⁻¹ cm⁻¹ | 74 μs | 21 μs | 0.17 | 0.022 | 0.024 | complete inhibition | Growth inhibition (%) S. aureus (S. aureus cells [4]; 0.1 μM, incubated 5 min, white light 5 min): 12.7%; Growth inhibition (%) S. aureus (S. aureus cells [4]; 0.1 μM, incubated 5 min, white light 10 min): 20.2%; Growth inhibition (%) S. aureus (S. aureus cells [4]; [13]): 59%; Growth inhibition (%) E. coli (E. coli cells [9]; [10]): 26%; Growth inhibition (%) E. coli (E. coli cells [9]; [11]): 56.6%; Growth inhibition (%) E. coli (E. coli cells [9]; 1 μM, incubated 5 min, white light 5 min): 57.9%; Growth inhibition (%) E. coli (E. coli cells [9]; 1 μM, incubated 5 min, white light 10 min): 95.7%; Growth inhibition (%) E. coli (E. coli cells [9]; [12]): 26%; Growth inhibition (%) E. coli (E. coli cells [9]; [13]): 58%; concentration photoinducing significant bacteriostatic and bactericidal action (E. coli cells [9]): ten-fold lower concentration
C[n+]1ccc(-c2c3nc(c(-c4cc[n+](C)cc4)c4ccc([nH]4)c(-c4cc[n+](Cc5ccccc5)cc4)c4nc(c(-c5cc[n+](C)cc5)c5ccc2[nH]5)C=C4)C=C3)cc1.Cl.Cl.[Cl-].[Cl-].[Cl-].[Cl-] [mono-benzyl, 5-(4-N-benzylpyridyl)-10,15,20-tris(4-N-methylpyridyl)-21H,23H-porphine tetrachloride dihydrochloride salt] |  |  |  |  |  |  |  |  |  |  |  |  |  |  |  |  |  |  |  |  | Growth inhibition (%) E. coli (E. coli cells [9]; 10 μM, incubated 5 min, white light 5 min): 54.1%; Growth inhibition (%) E. coli (E. coli cells [9]; 10 μM, incubated 5 min, white light 10 min): 100%; photodynamic effectiveness relative to base porphyrin (E. coli cells [9]; same conditions as base porphyrin): about twice as effective as the base porphyrin
